Columns and labels:
[1] = tested on: osteogenesis-oriented BMSCs (pre-osteoblasts); assay: In vitro osteogenic differentiation, Von kossa staining; assay type: cell-based, C57BL/6 male mice; settings: 5 days OM pretreatment, then 14 days peptide-containing OM, compared with the control peptide
Method: • 1.1 Cell culture: primary bone mesenchymal stem cells (BMSCs) extracted from the long bones of 3-week-old C57BL/6 male mice were selected, cultured at 37° C. in a humidified atmosphere with 5% CO2, and inoculated into a 24-well plate with 30000 cells/well. α-MEM supplemented with 5% FBS, 1% penicillin-streptomycin, […], 10 mM β-glycerophosphate, and 50 μg/mL L-ascorbic acid was used as the osteogenic medium (OM) for osteogenic induction. • 1.2 Cell induction: BMSCs were pretreated with OM for 5 days to achieve a determined osteogenic precursor cell state, followed by ongoing induction with peptide-containing OM for another 14 days. The experimental group used OM added with GS18, and the control group used OM added with the control peptide. GS18 was synthesized using a solid-phase polypeptide synthesis and was purified by HPLC (purity=96.59%). The amino acid sequence of the control peptide was shown as SEQ ID NO: 2, i.e. CKPLRLSKEEHPLK. The control peptide also adopted a solid-phase polypeptide synthesis method and used HPLC to purify products (purity=96.15%). […] The integrated density of calcium nodes (IntDen) and the percent of the calcified area to the total area (Area %) from five random areas were measured by Fiji. **p<0.01.

Wnt/β-catenin pathway = assay: Immunofluorescence staining of active β-catenin and osteocalcin in calvarial defects; assay type: in vivo, SD male rats; settings: 4 weeks after implantation
Method: • 3.1 Sample preparation: the GelMA scaffold was utilized to encapsulate either GS18 or control peptide at a concentration of 0.1 mg/mL, resulting in a total volume of 0.02 cm^3. • 3.2 Animal model: 12-week-old SD male rats (about 320±20 g each) were used. Each group contained 3 rats. Rats were anesthetized with 2% pentobarbital via abdominal injection. The rats were positioned in the prone position. An electric razor was utilized to remove fur from the cranial region. Following this, the surgical sites were thoroughly cleansed with iodophor for disinfection. To maintain a sterile condition, disposable towels were carefully placed over the surgical regions. Starting from the nasal bone, a longitudinal skin incision of 1.5-2.0 cm was made along the midline of the top of the head. The subcutaneous tissue was gently separated with the handle of a surgical knife. […]
• 4.1 Antigen repair: the paraffin slices prepared in Embodiment 3.3 were heated at 65° C., dewaxed, hydrated with xylene and gradient ethanol, and immersed in the antigen repair buffer at 100° C. for 40 min. […] Subsequently, the sections were washed with PBS three times for 15 min each time and sealed by the anti-fluorescence quencher. • 4.3 Result verification: images of immunofluorescence staining were acquired using a confocal laser scanning microscope (CLSM, FV3000, Olympus, Japan).

calvarial defects = assay: Calvarial defect implantation of polypeptide-modified GelMA, H&E and Goldner's trichrome staining; assay type: in vivo, SD male rats; settings: GelMA scaffold with peptide 0.1 mg/mL, 5 mm calvarial defect, 4 weeks post-implantation
Method: • 2.1 GelMA Preparation: gelatin was fully dissolved in phosphate-buffered saline (PBS) at 60° C. with a concentration of 10% (w/v). […] Double PBS was added to the mixture to stop the reaction. The solution was dialyzed against distilled water using 12-14 kDa dialysis tubing for 1 week. The obtained GelMA solution was frozen at −20° C. overnight and lyophilized for 72 h to get sponge GelMA. • 2.2 Polypeptide modification: 2 g lyophilized GelMA was dissolved in 10 mL PBS containing 0.1% (w/v) photoinitiator LAP at 60° C. Then, either a control peptide or GS18 was added to achieve a final concentration of 0.1 mg/mL. The above mixture was injected into the mold (20 μL/hole) and exposed to ultraviolet irradiation (6.9 W/cm^2, 360-489 nm) for 2 min at room temperature. Once solidified, the materials were carefully detached from the mold and placed on ice for use. • 2.3 Result verification: photographs were captured to depict the morphological characteristics of the polypeptide-modified GelMA after it was separated from the mold.
• 3.1 Sample preparation: the GelMA scaffold was utilized to encapsulate either GS18 or control peptide at a concentration of 0.1 mg/mL, resulting in a total volume of 0.02 cm^3. • 3.2 Animal model: 12-week-old SD male rats (about 320±20 g each) were used. Each group contained 3 rats. Rats were anesthetized with 2% pentobarbital via abdominal injection. The rats were positioned in the prone position. An electric razor was utilized to remove fur from the cranial region. Following this, the surgical sites were thoroughly cleansed with iodophor for disinfection. To maintain a sterile condition, disposable towels were carefully placed over the surgical regions. Starting from the nasal bone, a longitudinal skin incision of 1.5-2.0 cm was made along the midline of the top of the head. The subcutaneous tissue was gently separated with the handle of a surgical knife. The periosteum was meticulously incised along the sagittal suture of the cranium and subsequently separated to fully expose the parietal bone, occipital bone, and part of the frontal bone. Bilateral full-thickness circular calvarial defects (diameter=5 mm) were generated using a trephine. Sterilized materials were implanted into the defect sites. The experimental group was implanted with GS18-modified GelMA, While the control group was implanted with control peptide-modified GelMA. Finally, the skin was reset, sutured, and disinfected. • 3.3 Tissue slices: after 4 weeks, the rats were sacrificed. […] The paraffin tissue slices were heated at 65° C., dewaxed, hydrated with xylene and gradient ethanol, and stained with H&E and Goldner's trichrome staining for histological evaluation.

Row | Sequence | formation of calcium deposits of pre-osteoblasts (FIG. 1B) [1] | maturation of calcium deposits of pre-osteoblasts (FIG. 1C) [1] | expression of Ocn in the defect area (FIG. 5) (Wnt/β-catenin pathway) | expression of active β-Catenin in newly formed tissues of the calvarial defects (FIG. 5) (Wnt/β-catenin pathway; compared to non-peptide-modified GelMA) | H&E staining: cellular growth / cell recruitment in the defect (FIG. 3) (calvarial defects) | H&E staining: fiber mineralization in the defect (FIG. 3) (calvarial defects) | Goldner's trichrome staining: cellular growth / cell infiltration in the defect (FIG. 4) (calvarial defects)
1 | GPGGDKCRCVFHWVCCYVS (GPGGDKCRCVFHWCCYVS; The sequence is synthetized) [GS18] | significantly increased | significantly increased | robust and widespread | significantly enhanced | capacity to attract and recruit cells into the scaffolds | high degree of fiber mineralization | 
2 | CKPLRLSKEEHPLK (The sequence is synthetized) [control peptide, control peptide made by solid-phase polypeptide synthesis, reference compound] |  |  |  |  | noticeable lack of cellular growth in the central region of the defect |  | conspicuous paucity of cellular growth within the central region of the defect

From patent US11912793B2, “Polypeptide and application thereof in bone repair” (SICHUAN UNIVERSITY, priority 2022, dated 2024)
